# US20230146675A1, “PYRIMIDO[5,4-d]PYRIMIDINE DERIVATIVES AS ENT INHIBITORS FOR THE TREATMENT OF CANCERS, AND COMBINATION THEREOF WITH ADENOSINE RECEPTOR ANTAGONISTS” (ITEOS BELGIUM SA, priority 2020, published 2023)
# Molecular target: T1, human ENT1 (Homo sapiens, UniProt Q99808)
# T1 sequence (Q99808 1-456): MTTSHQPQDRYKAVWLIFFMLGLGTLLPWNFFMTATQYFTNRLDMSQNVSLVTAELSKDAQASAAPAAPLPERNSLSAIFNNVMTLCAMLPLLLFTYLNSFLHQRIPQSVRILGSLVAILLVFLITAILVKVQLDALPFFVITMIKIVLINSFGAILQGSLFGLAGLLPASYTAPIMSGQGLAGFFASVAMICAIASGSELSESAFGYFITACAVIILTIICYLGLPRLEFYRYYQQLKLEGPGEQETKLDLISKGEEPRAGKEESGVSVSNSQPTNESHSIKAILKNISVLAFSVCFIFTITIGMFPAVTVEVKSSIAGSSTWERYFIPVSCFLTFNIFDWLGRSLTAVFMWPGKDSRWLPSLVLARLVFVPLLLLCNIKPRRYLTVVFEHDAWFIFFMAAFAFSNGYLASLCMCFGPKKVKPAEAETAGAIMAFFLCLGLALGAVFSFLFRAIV
# Assay: ENT1 binding assay (competition with Sahenta-DY647 on JAR cells)
# Set-up: JAR cells expressing ENT1 were bought from ATCC; host or cells: JAR cells
# Details: binned IC50
# Outline: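 JAR cells were incubated with test compounds and the fluorescent ligand Sahenta-DY647 in competition. Plates were washed twice by centrifugation (4 min, 400 rcf, 4 °C). Binding potency was derived from the final fluorescence.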
row,Structure (SMILES),IC50
1,"COCCN(CCOC)c1nc(N2CCN(C)C(=O)C2)c2nc(N(CCOC)CCOC)nc(N3CCN(c4ncn(C)n4)CC3)c2n1 [Compound 216, 4-(2,6-bis(bis(2-methoxyethyl)amino)-8-(4-(1-methyl-1H-1,2,4-triazol-3-yl)piperazin-1-yl)pyrimido[5,4-d]pyrimidin-4-yl)-1-methylpiperazin-2-one]",100 to 500 nM
2,"CCCN(C)c1nc(N(CCOC)CCOC)nc2c(N3CCN(C)C(=O)C3)nc(N(CCOC)CCOC)nc12 [Compound 191, 4-(2,6-bis(bis(2-methoxyethyl)amino)-8-(methyl(propyl)amino)pyrimido[5,4-d]pyrimidin-4-yl)-1-methylpiperazin-2-one]",100 to 500 nM
3,"COCCN(CCOC)c1nc(N2CCC(OC)CC2)c2nc(N(CCOC)CCC(N)=O)nc(N3CCC(OC)CC3)c2n1 [Compound 197, 3-((6-(bis(2-methoxyethyl)amino)-4,8-bis(4-methoxypiperidin-1-yl)pyrimido[5,4-d]pyrimidin-2-yl)(2-methoxyethyl)amino)propanamide]",500 to 1000 nM
4,"COCCN(CCOC)c1nc(N2CCN(C)C(=O)C2)c2nc(N(CCOC)CCOC)nc(NCc3cccc(S(N)(=O)=O)c3)c2n1 [Compound 204, 3-(((2,6-bis(bis(2-methoxyethyl)amino)-8-(4-methyl-3-oxopiperazin-1-yl)pyrimido[5,4-d]pyrimidin-4-yl)amino)methyl)benzenesulfonamide]",100 to 500 nM
5,"COCCN(Cc1ccc(OC)c(OC)c1OC)c1nc(N2CCN(C)C(=O)C2)c2nc(N(CCOC)CCOC)nc(N3CCC(OC)CC3)c2n1 [Compound 302, 4-(6-(bis(2-methoxyethyl)amino)-2-((2-methoxyethyl)(2,3,4-trimethoxybenzyl)amino)-8-(4-methoxypiperidin-1-yl)pyrimido[5,4-d]pyrimidin-4-yl)-1-methylpiperazin-2-one]",< 100 nM
6,"COCCN(CCOC)c1nc(N2CCN(C)C(=O)C2)c2nc(N3CCC(S(C)(=O)=O)CC3)nc(N3CCC(OC)CC3)c2n1 [Compound 292, 4-(2-(bis(2-methoxyethyl)amino)-8-(4-methoxypiperidin-1-yl)-6-(4-(methyisulfonyl)piperidin-1-yl)pyrimido[5,4-d]pyrimidin-4-yl)-1-methylpiperazin-2-one]",100 to 500 nM
7,"COCCN(CCOC)c1nc(N2CCC(OC)CC2)c2nc(N(CCOC)CCOC)nc(NCc3cccc(Cl)c3)c2n1 [Compound 141, N4-(3-chlorobenzyl)-N2,N2,N6,N6-tetrakis(2-methoxyethyl)-8-(4-methoxypiperidin-1-yl)pyrimido[5,4-d]pyrimidine-2,4,6-triamine]",< 100 nM
8,"COCCN(CCOC)c1nc(N2CCN(C)C(=O)C2)c2nc(N(CCOC)CCOC)nc(N(C)Cc3ccc(F)c(F)c3)c2n1 [Compound 239, 4-(2,6-bis(bis(2-methoxyethyl)amino)-8-((3,4-difluorobenzyl)(methyl)amino)pyrimido[5,4-d]pyrimidin-4-yl)-1-methylpiperazin-2-one]",< 100 nM
9,"COCCN(CCOC)c1nc(N2CCN(c3ncn(C)n3)CC2)c2nc(N(CCOC)CCOC)nc(NCc3cccc(C(N)=O)c3)c2n1 [Compound 229, 3-(((2,6-bis(bis(2-methoxyethyl)amino)-8-(4-(1-methyl-1H-1,2,4-triazol-3-yl)piperazin-1-yl)pyrimido[5,4-d]pyrimidin-4-yl)amino)methyl)benzamide]",100 to 500 nM
10,"COCCN(CCOC)c1nc(N2CCN(C)C(=O)C2)c2nc(N(CCOC)CCOC)nc(NCC(C)C)c2n1 [Compound 215, 4-(2,6-bis(bis(2-methoxyethyl)amino)-8-(isobutylamino)pyrimido[5,4-d]pyrimidin-4-yl)-1-methylpiperazin-2-one]",100 to 500 nM
11,"COCCN(CCOC)c1nc(N2CCN(C)C(=O)C2)c2nc(N(CCOC)CCOC)nc(NCc3cccc(S(C)(=O)=O)c3)c2n1 [Compound 212, 4-(2,6-bis(bis(2-methoxyethyl)amino)-8-((3-(methylsulfonyl)benzyl)amino)pyrimido[5,4-d]pyrimidin-4-yl)-1-methylpiperazin-2-one]",500 to 1000 nM
12,"CCOCCCNc1nc(N(CCOC)CCOC)nc2c(N3CCC(OC)CC3)nc(N(CCOC)CCOC)nc12 [Compound 52, N4-(3-ethoxypropyl)-N2,N2,N6,N6-tetrakis(2-methoxyethyl)-8-(4-methoxypiperidin-1-yl)pyrimido[5,4-d]pyrimidine-2,4,6-triamine]",500 to 1000 nM
13,"COCCN(CCOC)c1nc(N2CCC(OC)CC2)c2nc(N(CCOC)CCOC)nc(NCCC(C)(C)O)c2n1 [Compound 178, 4-((2,6-bis(bis(2-methoxyethyl)amino)-8-(4-methoxypiperidin-1-yl)pyrimido[5,4-d]pyrimidin-4-yl)amino)-2-methylbutan-2-ol]",500 to 1000 nM
14,"COCCN(CCOC)c1nc(N2CCn3ncnc3C2)c2nc(N(CCOC)CCOC)nc(N3CCS(=O)(=O)CC3)c2n1 [Compound 6, 4-(2,6-bis(bis(2-methoxyethyl)amino)-8-(5,6-dihydro-[1,2,4]triazolo[1,5-a]pyrazin-7(8H)-yl)pyrimido[5,4-d]pyrimidin-4-yl)thiomorpholine 1,1-dioxide]",100 to 500 nM
15,"COCCN(CCOC)c1nc(N2CCN(C)C(=O)C2)c2nc(N(CCOC)CCOC)nc(N(C)Cc3cccc(F)c3)c2n1 [Compound 233, 4-(2,6-bis(bis(2-methoxyethyl)amino)-8-((3-fluorobenzyl)(methyl)amino)pyrimido[5,4-d]pyrimidin-4-yl)-1-methylpiperazin-2-one]",< 100 nM
16,"COCCN(CCOC)c1nc(NCc2cccc(F)c2)c2nc(N(CCO)CCO)nc(N3CCC(OC)CC3)c2n1 [Compound 324, 2,2′-((6-(bis(2-methoxyethyl)amino)-8-((3-lluorobenzyl)amino)-4-(4-methoxypiperidin-1-yl)pyrimido[5,4-d]pyrimidin-2-yl)azanediyl)bis(ethan-1-ol)]",< 100 nM
17,"COCCN(CCOC)c1nc(N2CCC(OC)CC2)c2nc(N(CCOC)CCOC)nc(N3CCCC3)c2n1 [Compound 89, N2,N2,N6,N6-tetrakis(2-methoxyethyl)-4-(4-methoxypiperidin-1-yl)-8-(pyrrolidin-1-yl)pyrimido[5,4-d]pyrimidine-2,6-diamine]",100 to 500 nM
18,"COCCN(Cc1ccc(C(=O)O)c(OC)c1)c1nc(N2CCN(C)C(=O)C2)c2nc(N(CCOC)CCOC)nc(N3CCC(OC)CC3)c2n1 [Compound 337, 4-(((6-(bis(2-methoxyethyl)amino)-8-(4-methoxypiperidin-1-yl)-4-(4-methyl-3-oxopiperazin-1-yl)pyrimido[5,4-d]pyrimidin-2-yl)(2-methoxyethyl)amino)methyl)-2-methoxybenzoic acid]",100 to 500 nM
19,"COCCN(CCOC)c1nc(N2CCN(C)C(=O)C2)c2nc(N(CCOC)CCOC)nc(NCc3ccc(F)c(F)c3)c2n1 [Compound 213, 4-(2,6-bis(bis(2-methoxyethyl)amino)-8-((3,4-difluorobenzyl)amino)pyrimido[5,4-d]pyrimidin-4-yl)-1-methylpiperazin-2-one]",< 100 nM
20,"COCCN(CCOC)c1nc(N2CCC(C)C2)c2nc(N(CCOC)CCOC)nc(N3CCC(OC)CC3)c2n1 (centres unmarked) [Compound 91, N2,N2,N6,N6-tetrakis(2-methoxyethyl)-4-(4-methoxypiperidin-1-yl)-8-(3-methylpyrrolidin-1-yl)pyrimido[5,4-d]pyrimidine-2,6-diamine]",100 to 500 nM
